The values that follow are results of earlier work, collected in US20050042177A1, “Novel compositions of sildenafil free base” (Elan Pharma International Ltd., priority 2003, published 2005).

The term Tmax denotes the time at which the peak concentration occurs.

In one series the test system is PDE6. Particulars: PDE5 versus PDE6.
[1] abbreviates: 100 mg oral dose, healthy adult males.

As to `CCCc1nn(C)c2c(=O)[nH]c(-c3cc(S(=O)(=O)N4CCN(C)CC4)ccc3OCC)nc12.O=C(O)CC(O)(CC(=O)O)C(=O)O` [Sildenafil citrate, 1-[[3-(6,7-dihydro-1-methyl-7-oxo-3-propyl-1H-pyrazolo[4,3-d]pyrimidin-5-yl)-4-ethoxyphenyl]sulfonyl]-4 methylpiperazine citrate], under setting [1], the Tmax is 1 h, the “mean Cmax” value is 440 ng/mL and the t1/2 entry was “about 4 hours”. In addition, the absolute bioavailability (in vivo) is reported as 40%.
Consider `CCCc1nn(C)c2c(=O)[nH]c(-c3cc(S(=O)(=O)N4CCN(C)CC4)ccc3OCC)nc12` [Sildenafil, 1-[[3-(6,7-dihydro-1-methyl-7-oxo-3-propyl-1H-pyrazolo[4,3-d]pyrimidin-5-yl)-4-ethoxyphenyl]sulfonyl]-4-methylpiperazine], for which the “potency for PDE5 as compared to PDE6” value in the series with PDE6 was “approximately 10 fold”.
